Our source for the mutagenic call values is PubChem BioAssay AID1259407 (Chemical Carcinogenesis Research Information System (CCRIS), 2018).

For this series, the system named is CCRIS mutagenicity, Ames/micronucleus/aberration tests. The series can be described thus: CCRIS mutagenicity studies.
[1] abbreviates: Test System: AMES SALMONELLA TYPHIMURIUM, Strain/Indicator: TA98, Metabolic Activation: NONE, Method: STANDARD PLATE.
Setting [2] is: Test System: AMES SALMONELLA TYPHIMURIUM, Strain/Indicator: TA100, Metabolic Activation: NONE, Method: STANDARD PLATE.
Setting [3] is: Test System: AMES SALMONELLA TYPHIMURIUM, Strain/Indicator: TA1538, Metabolic Activation: RAT, LIVER, S-9, AROCLOR 1254, Method: STANDARD PLATE.

Active and inactive are the calls of the source. How the calls were made is not given here.

For the molecule `C=C(C)C(=O)OCCCC`, the mutagenic call by setting is: (Test System: AMES SALMONELLA TYPHIMURIUM, Strain/Indicator: TA98, Metabolic Activation: HAMSTER, LIVER, S-9, AROCLOR 1254 (10%), Method: PREINCUBATION) “inactive; negative”; (Test System: AMES SALMONELLA TYPHIMURIUM, Strain/Indicator: TA98, Metabolic Activation: NONE, Method: PREINCUBATION) “inactive; negative”; under setting [1], “inactive; negative”; (Test System: AMES SALMONELLA TYPHIMURIUM, Strain/Indicator: TA98, Metabolic Activation: RAT LIVER S-9, PHENOBARBITAL AND BETA-NAPHTHOFLAVONE, Method: PREINCUBATION) “inactive; negative”; (Test System: AMES SALMONELLA TYPHIMURIUM, Strain/Indicator: TA98, Metabolic Activation: RAT, LIVER, S-9, AROCLOR 1254 (10%), Method: PREINCUBATION) “inactive; negative”; (Test System: AMES SALMONELLA TYPHIMURIUM, Strain/Indicator: TA98, Metabolic Activation: RAT, LIVER, S-9, AROCLOR 1254, Method: STANDARD PLATE) “inactive; negative”. For the same molecule, the mutagenic call is, setting by setting: (Test System: AMES SALMONELLA TYPHIMURIUM, Strain/Indicator: TA98, Metabolic Activation: RAT, LIVER, S-9, SODIUM PHENOBARBITAL, Method: STANDARD PLATE) “inactive; negative”; (Test System: AMES SALMONELLA TYPHIMURIUM, Strain/Indicator: TA100, Metabolic Activation: HAMSTER, LIVER, S-9, AROCLOR 1254 (10%), Method: PREINCUBATION) “inactive; negative”; (Test System: AMES SALMONELLA TYPHIMURIUM, Strain/Indicator: TA100, Metabolic Activation: NONE, Method: PREINCUBATION) “inactive; negative”; under setting [2], “inactive; negative”; (Test System: AMES SALMONELLA TYPHIMURIUM, Strain/Indicator: TA100, Metabolic Activation: RAT LIVER S-9, PHENOBARBITAL AND BETA-NAPHTHOFLAVONE, Method: PREINCUBATION) “inactive; negative”; (Test System: AMES SALMONELLA TYPHIMURIUM, Strain/Indicator: TA100, Metabolic Activation: RAT, LIVER, S-9, AROCLOR 1254 (10%), Method: PREINCUBATION) “inactive; negative”. For the same molecule, the mutagenic call was “inactive; negative” (Test System: AMES SALMONELLA TYPHIMURIUM, Strain/Indicator: TA100, Metabolic Activation: RAT, LIVER, S-9, AROCLOR 1254, Method: STANDARD PLATE); “inactive; negative” (Test System: AMES SALMONELLA TYPHIMURIUM, Strain/Indicator: TA100, Metabolic Activation: RAT, LIVER, S-9, SODIUM PHENOBARBITAL, Method: STANDARD PLATE); “inactive; negative” (Test System: AMES SALMONELLA TYPHIMURIUM, Strain/Indicator: TA1535, Metabolic Activation: HAMSTER, LIVER, S-9, AROCLOR 1254 (10%), Method: PREINCUBATION); “inactive; negative” (Test System: AMES SALMONELLA TYPHIMURIUM, Strain/Indicator: TA1535, Metabolic Activation: NONE, Method: PREINCUBATION); “inactive; negative” (Test System: AMES SALMONELLA TYPHIMURIUM, Strain/Indicator: TA1535, Metabolic Activation: NONE, Method: STANDARD PLATE); “inactive; negative” (Test System: AMES SALMONELLA TYPHIMURIUM, Strain/Indicator: TA1535, Metabolic Activation: RAT LIVER S-9, PHENOBARBITAL AND BETA-NAPHTHOFLAVONE, Method: PREINCUBATION). The mutagenic call runs as follows: (Test System: AMES SALMONELLA TYPHIMURIUM, Strain/Indicator: TA1535, Metabolic Activation: RAT, LIVER, S-9, AROCLOR 1254 (10%), Method: PREINCUBATION) “inactive; negative”; (Test System: AMES SALMONELLA TYPHIMURIUM, Strain/Indicator: TA1535, Metabolic Activation: RAT, LIVER, S-9, AROCLOR 1254, Method: STANDARD PLATE) “inactive; negative”; (Test System: AMES SALMONELLA TYPHIMURIUM, Strain/Indicator: TA1535, Metabolic Activation: RAT, LIVER, S-9, SODIUM PHENOBARBITAL, Method: STANDARD PLATE) “inactive; negative”; (Test System: AMES SALMONELLA TYPHIMURIUM, Strain/Indicator: TA1537, Metabolic Activation: HAMSTER, LIVER, S-9, AROCLOR 1254 (10%), Method: PREINCUBATION) “inactive; negative”; (Test System: AMES SALMONELLA TYPHIMURIUM, Strain/Indicator: TA1537, Metabolic Activation: NONE, Method: PREINCUBATION) “inactive; negative”; (Test System: AMES SALMONELLA TYPHIMURIUM, Strain/Indicator: TA1537, Metabolic Activation: NONE, Method: STANDARD PLATE) “inactive; negative”. Also, the mutagenic call (Test System: AMES SALMONELLA TYPHIMURIUM, Strain/Indicator: TA1537, Metabolic Activation: RAT LIVER S-9, PHENOBARBITAL AND BETA-NAPHTHOFLAVONE, Method: PREINCUBATION) was “inactive; negative”; the mutagenic call (Test System: AMES SALMONELLA TYPHIMURIUM, Strain/Indicator: TA1537, Metabolic Activation: RAT, LIVER, S-9, AROCLOR 1254 (10%), Method: PREINCUBATION) is “inactive; negative”; the mutagenic call (Test System: AMES SALMONELLA TYPHIMURIUM, Strain/Indicator: TA1537, Metabolic Activation: RAT, LIVER, S-9, AROCLOR 1254, Method: STANDARD PLATE) was “inactive; negative”; the mutagenic call (Test System: AMES SALMONELLA TYPHIMURIUM, Strain/Indicator: TA1537, Metabolic Activation: RAT, LIVER, S-9, SODIUM PHENOBARBITAL, Method: STANDARD PLATE) is “inactive; negative”; the mutagenic call (Test System: AMES SALMONELLA TYPHIMURIUM, Strain/Indicator: TA1538, Metabolic Activation: NONE, Method: STANDARD PLATE) was “inactive; negative”; the mutagenic call under setting [3] was “inactive; negative”. The mutagenic call reads like this: (Test System: AMES SALMONELLA TYPHIMURIUM, Strain/Indicator: TA1538, Metabolic Activation: RAT, LIVER, S-9, SODIUM PHENOBARBITAL, Method: STANDARD PLATE) “inactive; negative”; (Test System: E.COLI, Strain/Indicator: WP2UVRA/PKM101, Metabolic Activation: NONE, Method: PREINCUBATION) “inactive; negative”; (Test System: E.COLI, Strain/Indicator: WP2UVRA/PKM101, Metabolic Activation: RAT LIVER S-9, PHENOBARBITAL AND BETA-NAPHTHOFLAVONE, Method: PREINCUBATION) “inactive; negative”.

With `C[C@H](CCC(=O)NCC(=O)O)[C@H]1CC[C@H]2[C@@H]3[C@@H](O)C[C@@H]4C[C@H](O)CC[C@]4(C)[C@H]3CC[C@]12C`, the mutagenic call (Test System: Ames Salmonella typhimurium, Strain/Indicator: TA98, Metabolic Activation: Rat, Liver, S-9, Aroclor 1254, Method: Plate incorporation) is “inactive; negative”.

Regarding `CN1CCN(c2ccc3nc(Cc4ccc5nc(-c6ccc(N(CCCl)CCCl)cc6)[nH]c5c4)[nH]c3c2)CC1`, the mutagenic call was “inactive; negative” under setting [1]; “inactive; negative” under setting [2]; “inactive; negative” (Test System: AMES SALMONELLA TYPHIMURIUM, Strain/Indicator: TA102, Metabolic Activation: NONE, Method: STANDARD PLATE).

`Nc1c(N=Nc2ccc(-c3ccc(N=Nc4cc(S(=O)(=O)O)c5ccccc5c4N)cc3)cc2)cc(S(=O)(=O)O)c2ccccc12`: the mutagenic call reads like this: (Test System: AMES SALMONELLA TYPHIMURIUM, Strain/Indicator: TA98, Metabolic Activation: HAMSTER, LIVER, S-9, Method: PREINCUBATION (PRIVAL METHOD)) “active; positive”; under setting [1], “inactive; negative”; (Test System: AMES SALMONELLA TYPHIMURIUM, Strain/Indicator: TA98, Metabolic Activation: RAT, LIVER, S-9, PHENOBARBITAL, Method: STANDARD PLATE) “inactive; negative”; under setting [2], “active; positive”; (Test System: AMES SALMONELLA TYPHIMURIUM, Strain/Indicator: TA100, Metabolic Activation: RAT, LIVER, S-9, PHENOBARBITAL, Method: STANDARD PLATE) “inactive; negative”; (Test System: AMES SALMONELLA TYPHIMURIUM, Strain/Indicator: TA1538, Metabolic Activation: HAMSTER, LIVER, S-9, Method: STANDARD PLATE) “inactive; negative”. For the same molecule, the mutagenic call is, setting by setting: under setting [3], “inactive; negative”; (Test System: Ames Salmonella typhimurium, Strain/Indicator: TA98, Metabolic Activation: Rat, Liver, S-9, Sodium phenobarbitone, Method: Preincubation) “inactive; negative, test conducted under both aerobic and anaerobic conditions”; (Test System: Ames Salmonella typhimurium, Strain/Indicator: TA1538, Metabolic Activation: Rat, Liver, S-9, Sodium phenobarbitone, Method: Preincubation) “inactive; negative, test conducted under both aerobic and anaerobic conditions”.
